Measured values reported in patent US20160213632A1, “Memory Performance and Prevention and Treatment of Neurodegenerative Diseases” (Max Planck Florida Institute for Neuroscience, priority 2015, published 2016).
“Also recorded” adds a separate entry of the source.

How the values were obtained:
Ras = test: Active Ras pull-down assay in hippocampus of AD model (APP) mice; format: in vivo; settings: hippocampus of 6 months old APP mice; daily IP injections for 3 consecutive days
Method: (§1) As a model for AD, male hAPPJ20 transgenic mice were used (Mucke et al., 2000). Non-transgenic male littermates were used for controls.
The level of active Ras in hippocampal lysates from CentA1 KO mice and their wild type litter mates was measured with an active Ras pull-down and detection kit and following the instructions from manufacturer (Thermo Scientific). Western blotting was conducted with mouse anti-Ras antibody.

ERK1/2 = test: Western blotting for active/phosphorylated ERK1/2 in AD model mice; format: in vivo; settings: daily IP injections for 3 consecutive days
Method: as §1
Protein expression and/or phosphorylation was evaluated by standard western blotting protocol using the following antibodies: goat anti-centaurin-α1 (Abcam; 1:500); mouse anti-β-actin (Sigma, 1:2000); mouse 6E10 (Covance, 1:1000); rabbit anti-phosphoERK1/2 (Cell Signaling Technologies, 1:1000); mouse anti-ERK1/2 (Cell Signaling Technologies, 1:1000); mouse anti-Ras (Pierce, 1:1000); rabbit anti-Hsp10 (Cell Signaling Technologies, 1:1000); rabbit anti-Hsp60 (Cell Signaling Technologies, 1:1000); and HRP-labeled anti-mouse, anti-goat, or anti-rabbit IgG antibodies (BioRad; 1:2000).

CA1 neurons = test: Dendritic spine density in cultured (organotypic) hippocampal slices treated with Aβ; format: cell-based, mice
Method: Organotypic hippocampal slice cultures (300 μm thick) were prepared from mice at postnatal day 6 or 7. After 1 week in culture, slices were transfected using biolistic gene transfer. Aβ stock solution (200 μM) was prepared in 1% NH4OH as a vehicle and added directly to the culture medium at a final concentration of 1 μM. FTI-277 was dissolved in DMSO and added directly to the culture medium at a final concentration of 10 μM.

organotypic slices = organotypic slices (Szatmari et al, 2013); cited from earlier work

Structure (SMILES) | Ras activity (pull-down assay) (Ras) | active/phosphorylated ERK1/2 (downstream of Ras) (ERK1/2) | dendritic spine density in CA1 neurons exposed to Aβ (CA1 neurons; cultured hippocampal slices, vehicle or Aβ in presence or absence of FTI-276 (FIG. 6D)) | Aβ-induced spine loss (CA1 neurons; organotypic slices, FTI-277 10 μM, Aβ 1 μM) | Aβ-induced decreased mEPSC frequency (organotypic slices)
CSCC[C@H](NC(=O)c1ccc(NC[C@@H](N)CS)cc1-c1ccccc1)C(=O)O [FTI-276] | reduced; also recorded: prevented Ras hyperactivation | reduces the activity of signaling pathways downstream of Ras; also recorded: reduced phosphorylation/activation of ERK1/2 | restored | – | –
COC(=O)[C@H](CCSC)NC(=O)c1ccc(NC[C@@H](N)CS)cc1-c1ccccc1 [FTI-277] | – | – | – | prevented | prevented
